Experimental data published in ChEMBL document CHEMBL1144086, “Tryptamine derived amides and acetogenins from the seeds of Rollinia mucosa” (J Nat Prod, 1999).
Converted amounts (≈) assume the structure as drawn.

How the values were obtained:
MIA PaCa-2 = experiment: Cytotoxicity against human PaCa2 cells; assay type: functional; details: read-out: ED50 (the source's name)
[1] = (§1) Toxicity in Artemia salina; assay type: organism-based; details: in vivo
A549 = experiment: Cytotoxicity against human A549 cells; assay type: functional; details: read-out: ED50 (the source's name)
[2] = Cytotoxicity against human […] cells; assay type: functional; details: read-out: ED50 (the source's name)
PC-3 = experiment: Cytotoxicity against human PC-3 cells; assay type: functional; details: read-out: ED50 (the source's name)
MCF7 = experiment: Cytotoxicity against human MCF7 cells; assay type: functional; details: read-out: ED50 (the source's name)
HT-29 = experiment: Cytotoxicity against human HT-29 cells; assay type: functional; details: read-out: ED50 (the source's name)
Artemia salina = experiment: as §1; assay type: organism-based; details: in vivo

SMILES	EC50 (MIA PaCa-2) [µg/mL]	LC50 [1] [µg/mL]	EC50 (A549) [µg/mL]	EC50 [2] [µg/mL]	EC50 (PC-3) [µg/mL]	EC50 (MCF7) [µg/mL]	EC50 (HT-29) [µg/mL]	LC50 (Artemia salina) [×10⁻² ug/ml]
CCCCCCCCCCCCCCCCCCCCCCCC(=O)NCCc1c[nH]c2ccccc12	> 10	> 500	> 10	> 10	> 10	> 10	> 10	
CCCCCCCCCCCCCCCCCC(=O)NCCc1c[nH]c2ccccc12	> 10	> 500	> 10	> 10	> 10	> 10	> 10	
COc1cccc2c1C(=O)c1c(O)c3c(c(O)c1C2=O)C[C@@](O)(C(=O)CO)C[C@@H]3O[C@H]1C[C@H](N)[C@H](O)[C@H](C)O1 [DOXORUBICIN]	0.0011 (≈ 0.00202 µM)		0.89 (≈ 1.64 µM)	0.0083 (≈ 0.0153 µM)	0.0056 (≈ 0.0103 µM)	3.6 (≈ 6.62 µM)	3.7 (≈ 6.81 µM)	
CCCCCCCCCCCCCCCC(=O)NCCc1c[nH]c2ccccc12	> 10	> 500	> 10	> 10	> 10	> 10	> 10	
CCCCCCCCCC[C@H](O)[C@@H]1CC[C@H]([C@H]2CC[C@@H]([C@H](O)CCCCCCCCCCCCC3=C[C@H](C)OC3=O)O2)O1 [MEMBRANACIN]	2.1 (≈ 3.46 µM)		0.4 (≈ 0.659 µM)	< 0.001	< 0.001	2.18 (≈ 3.59 µM)	3.04 (≈ 5.01 µM)	5
CCCCCCCCCCCCCCCCCCCCCCC(=O)NCCc1c[nH]c2ccccc12	> 10	> 500	> 10	> 10	> 10	> 10	> 10	
CCCCCCCCCCCCCCCCCCCCCC(=O)NCCc1c[nH]c2ccccc12	> 10	> 500	> 10	> 10	> 10	> 10	> 10	
CCCCCCCCCCCCCCCCCCCCCCCCC(=O)NCCc1c[nH]c2ccccc12	> 10	> 500	> 10	> 10	> 10	> 10	> 10	
CCCCCCCCCCCCCCCCCCCC(=O)NCCc1c[nH]c2ccccc12	> 10	> 500	> 10	> 10	> 10	> 10	> 10	
CCCCCCCCCCCCCCCCCCCCCCCCCC(=O)NCCc1c[nH]c2ccccc12	> 10	> 500	> 10	> 10	> 10	> 10	> 10	
CCCCCCCCCC[C@H](O)[C@H]1CC[C@H]([C@H]2CC[C@H]([C@H](O)CCCCCCCCCCCCC3=C[C@H](C)OC3=O)O2)O1 [BULLANIN]	1.92 (≈ 3.16 µM)		0.47 (≈ 0.774 µM)	< 0.001	< 0.001	1.35 (≈ 2.22 µM)	1.69 (≈ 2.78 µM)	1.6
